Assays:
[1] = biological target: T1, L55P variant transthyretin (Homo sapiens, UniProt P02766, L75P); experiment: Mass spectrometric analysis of subunit exchange; format: biochemical; parameters: made in house; settings: for subunit exchange of L55P transthyretin: in words
Experimental: 4.2 Mass spectrometric analysis of subunit exchange. Recombinant wild type, L55P and V30M transthyretin variants were biosynthetically labelled with isotopes [^15N] and [^15N, ^13C] as previously described (Keetch C A et al, 2005). Immediately prior to analysis, proteins were buffer exchanged into 20 mM ammonium acetate, pH 7.0 using Micro Biospin columns (Bio-Rad, UK). The subunit composition of transthyretin was monitored as a function of time by incubating an equimolar solution (4.4 μM) of [^15N] and [^15N, ^13C] labelled proteins in the presence of 2-fold molar excess of 4ajm15 in DMSO or 2.5% DMSO alone as a control. Each experiment was carried out in triplicate at room temperature and at 4° C. as well, since it is known that subunit exchange is accelerated at low temperatures. Nanoflow ESMS was performed on a QToF2 instrument (Waters/Micromass UK, Ltd.) modified for high mass operation (Sobott et al, (2002)) and calibrated externally using caesium iodide (100 mg/ml). Each solution, 1.5 μl, was electrosprayed from gold coated borosilicate capillaries prepared in-house as described (Nettleton E J, et al, 1998). To preserve the non-covalent interactions in the transthyretin tetramer, the MS parameters applied were: capillary voltage 1.6 kV, sample cone 160 V, extractor cone 20 V, ion transfer stage pressure 7.0×10 ^−3 mbar, quadrupole analyzer pressure 9.5×10^−4 mbar and ToF analyzer pressure 1.7×10^−6 mbar. Data were processed with MassLynx software (Waters/Micromass UK, Ltd.) and are presented with minimal smoothing and without background subtraction.
This most unstable transthyretin variant rapidly undergoes spontaneous and extensive subunit exchange, as illustrated in FIG. 8. FIGS. 9-11 show the effects of decreasing molar ratios of mds84 on inhibition of subunit exchange. […] At lower molar ratios of mds84 some exchange takes place but the transthyretin molecules which bind mds84 are still completely stabilized.

[2] = biological target: T1, L55P variant transthyretin; experiment: Inhibition of transthyretin aggregation at acidic pH (turbidity at 400 nm); format: biochemical
Experimental: 3.3.2 Inhibition of transthyretin aggregation by 4ajm15: In pilot experiments, transthyretin aggregates were formed from wild type transthyretin (3.6 μM) after incubation at acidic pH for 3 d at 37° C. (Colon and Kelly, 1992). The efficacy of 4ajm15 as an inhibitor of transthyretin aggregate formation was then compared with other transthyretin ligand compounds. […] After 30 min at 37° C., the pH was adjusted to pH 4.4 (with 0.2 M sodium acetate buffer pH 4.0), and the ˜1 ml mixtures were incubated unstirred for 3 d at 37° C.
Using the same method the activities of mds84 and 4ajm15 as inhibitors of the aggregation of both wild type transthyretin and the most aggressively aggregating transthyretin variant, L55P, were evaluated in triplicate with both proteins at 3.6 μM and with one (3.6 μM) or 3 equivalents (10.8 μM) of each ligand. Wild type transthyretin was studied at pH 4.4 and L55P at pH 5.0. […] Mean values and standard deviations are shown in Table 2 and in FIG. 4, where results with 1:1 molar ratio are shown cross hatched and 3:1 molar ratio in open bars.

[3] = biological target: T2, wild type transthyretin isolated from plasma (Homo sapiens, UniProt P02766); experiment: Competition with 125I-T4 for binding by pure transthyretin; settings: 125 nM transthyretin, trace 125I-T4, pH 8.0, overnight 4° C.
T2 construct: Native tetrameric transthyretin was purified from fractionated human plasma; from tissue; host or cells: human plasma

transthyretin = biological target: T3, transthyretin (Homo sapiens, UniProt P02766); experiment: Intrinsic fluorescence quenching of transthyretin by ligand titration; format: binding; settings: 1 μM transthyretin, PBS pH 7.4, ligand 0-2 μM, excitation 280 nm, 20° C.
T3 construct: Native tetrameric transthyretin was purified from fractionated human plasma; from tissue; host or cells: human plasma
Experimental: 3.2.1. Binding of 4ajm15 and mds84 by transthyretin. The interactions between the ligands 4ajm15 or mds84 and transthyretin were studied by monitoring intrinsic fluorescence in the emission range 300-500 nm on excitation at 280 nm using a Perkin Elmer LS55 fluorimeter and a standard 1 cm path length quartz cell at 20° C. Quenching of tryptophan was achieved by titrating 1 μM transthyretin in PBS, pH 7.4 with increasing concentrations of each ligand in the range 0-2 μM (FIG. 2A). […] At the same time the changes in 4ajm15 fluorescence upon binding to the protein were monitored in the emission range 400-600 nm and excitation at 340 nm that is the wavelength specific for 4ajm15 excitation. In these conditions, accumulation of the spectra highlights an isosbestic point at 483 nm (FIG. 2B). The same results were achieved by using mds84 (not shown). The results of the titration of 4ajm15 in presence and absence of transthyretin support a model of binding in which both the binding sites are simultaneously occupied by the palindromic ligand.
In each case increasing concentrations of ligand (0-2 μM) were added to 1 μM protein. The arrow in FIG. 2B indicates the isosbestic point at 483 nm occurring on formation of the protein ligand complex. […] The percent quenching represents ΔF/F0 where F0 is fluorescence intensity prior to the addition of ligands and AF is the decrease in fluorescence at a given ligand concentration.

wild type transthyretin = wild type transthyretin (Homo sapiens, UniProt P02766); experiment: Displacement of 125I-T4 from transthyretin in whole serum; format: binding; settings: mean
Source text: 3.2.3.2. Quantitative studies in serum. […] The immunoprecipitate was recovered by centrifugation, washed twice with 0.1 M Tris, 0.1 M NaCl, pH 8.0 and counted.

O=C(O)c1ccccc1Nc1cc(Cl)c(OCCCCCCCCCCCOc2c(Cl)cc(Nc3ccccc3C(=O)O)cc2Cl)c(Cl)c1 [4ajm15, 2,2′-(4,4′-(undecane-1,11-diylbis(oxy))bis(3,5-dichloro-4,1-phenylene))bis(azanediyl)dibenzoic acid]
subunit exchange of L55P transthyretin [1]: Exactly the same effect | aggregation of L55P in the presence of ligand ([2]; L55P, pH 5.0, results not shown, in words): identical to those with mds84 | IC50 [3]: 0.2 ± 0.07 µM | intrinsic fluorescence of transthyretin remaining after titration (transthyretin): 40% | IC50 (wild type transthyretin): 27 µM

O=C(O)c1ccccc1Nc1cc(Cl)c(OCCCCCCCOc2c(Cl)cc(Nc3ccccc3C(=O)O)cc2Cl)c(Cl)c1 [mds84, 2,2′-(4,4′-(heptane-1,7-diylbis(oxy))bis(3,5-dichloro-4,1-phenylene))bis(azanediyl)dibenzoic acid]
ligand bound per mole of transthyretin for complete stabilization ([1]; L55P variant, decreasing molar ratios of ligand): one mole | subunit exchange of L55P transthyretin [1]: completely inhibits all subunit exchange | Aggregation of transthyretin, Mean (1:1) ([2]; L55P 3.6 μM, ligand 3.6 μM, pH 5.0): 17 per cent of control with DMSO alone | Aggregation of transthyretin, Mean (3:1) ([2]; L55P 3.6 μM, ligand 10.8 μM, pH 5.0): 9.9 per cent of control with DMSO alone | IC50 [3]: 0.15 ± 0.025 µM | intrinsic fluorescence of transthyretin remaining after titration (transthyretin): 40% | IC50 (wild type transthyretin): 11.9 µM

From patent US8236984B2, “Compound and use thereof in the treatment of amyloidosis” (Pentraxin Therapeutics Ltd., priority 2007, dated 2012)
